Source: US11091478B2 (Fochon Pharmaceuticals, Ltd., priority 2017, dated 2021)
pIC50: −log10 of the molar value.

System: DOHH2 cells
Test: Cell proliferation assay (MTS), DOHH2 cells, 120 h
Format: cell-based
Conditions: Homo sapiens, DOHH-2, 120 h
From the text: Cell Proliferation Assays
MTS testing kit was purchased from Promega. The RPMI-1640, Fetal bovine serum and Penicillin-Streptomycin were purchased from Gibco. Dimethyl sulfoxide (DMSO) was purchased from Sigma.
To investigate whether a compound is able to inhibit the activity of BCL-2 in cells, a mechanism-based assay using DOHH2 (DSMZ No.® ACC 47) and RS4;11 (ATCC® CRL-1873™) cell was developed. In this assay, inhibition of Bcl-2 was detected by the inhibition of DOHH2 cells proliferation. DOHH2 cells were cultured in culture flasks to 40-80% confluence in RPMI-1640 plus 10% fetal bovine serum. Cells were collected and plated onto 96-well plates at desired cell density (5000 cells/well). Plates were incubated overnight at 37° C., with 5% CO2 to adhere. Compounds were added to the plates, and the final compound concentrations were 10000, 3333, 1111, […], 124, 41, 14, 4.6 and 1.5 nM. Plates plated with DOHH2 or RS4;11 cells were placed at 37° C., with 5% CO2 for 120 h (DOHH2) or 72 h (RS4;11) respectively. 20 μl MTS/100 μl medium mixture solution were added to each well and incubate the plates for exactly 2 hours. The reaction was stopped by adding 25 μl 10% SDS per well. Measure absorbance at 490 nm and 650 nm (reference wavelength). IC50 was calculated using GraphPad Prism 5.0.
Select compounds prepared as described above were assayed according to the biological procedures described herein.

In order of falling pIC50:
1. CC1(C)CCC(CN2CCN(c3ccc(C(=O)NS(=O)(=O)c4cc([N+](=O)[O-])c5nc(CN6CCOCC6)[nH]c5c4)c(Oc4cnc5[nH]ccc5c4)c3)CC2)=C(c2ccc(Cl)cc2)C1 [Example 1-27, 2-((1H-pyrrolo[2,3-b]pyridin-5-yl)oxy)-4-(4-((4′-chloro-5,5-dimethyl-3,4,5,6-tetrahydro-[1,1′-biphenyl]-2-yl)methyl)piperazin-1-yl)-N-((2-(morpholinomethyl)-4-nitro-1H-benzo[d]imidazol-6-yl)sulfonyl)benzamide]  7.29
2. CC1(C)CCC(CN2CCN(c3ccc(C(=O)NS(=O)(=O)c4cc5c(c([N+](=O)[O-])c4)N[C@@H](CN=S4(=O)CCCC4)CO5)c(Oc4cnc5[nH]ccc5c4)c3)CC2)=C(c2ccc(Cl)cc2)C1 [Example 2-76, (S)-2-((1H-pyrrolo[2,3-b]pyridin-5-yl)oxy)-4-(4-((4′-chloro-5,5-dimethyl-3,4,5,6-tetra-hydro-[1,1′-biphenyl]-2-yl)methyl)piperazin-1-yl)-N-((5-nitro-3-(((1-oxidotetrahydro-1λ^6-thiophen-1-ylidene)amino)methyl)-3,4-dihydro-2H-benzo[b][1,4]oxazin-7-yl)sulfo-nyl)benzamide]  6.92
3. CN1CCN(C[C@@H]2COc3cc(S(=O)(=O)NC(=O)c4ccc(N5CCN(CC6=C(c7ccc(Cl)cc7)CC(C)(C)CC6)CC5)cc4Oc4cnc5[nH]ccc5c4)cc([N+](=O)[O-])c3N2)CC1 [Example 2-4, (R)-2-((1H-pyrrolo[2,3-b]pyridin-5-yl)oxy)-4-(4-((4′-chloro-5,5-dimethyl-3,4,5,6-tetra-hydro-[1,1′-biphenyl]-2-yl)methyl)piperazin-1-yl)-N-((3-((4-methylpiperazin-1-yl)meth-yl)-5-nitro-3,4-dihydro-2H-benzo[b][1,4]oxazin-7-yl)sulfonyl)benzamide]  6.86
4. CC1(C)CCC(CN2CCN(c3ccc(C(=O)NS(=O)(=O)c4cc5c(c([N+](=O)[O-])c4)N[C@H](CCO)C5)c(Oc4cnc5[nH]ccc5c4)c3)CC2)=C(c2ccc(Cl)cc2)C1 [Example 1-20, (S)-2-((1H-pyrrolo[2,3-b]pyridin-5-yl)oxy)-4-(4-((4′-chloro-5,5-dimethyl-3,4,5,6-tetra-hydro-[1,1′-biphenyl]-2-yl)methyl)piperazin-1-yl)-N-((2-(2-hydroxyethyl)-7-nitro-indolin-5-yl)sulfonyl)benzamide]  6.77
5. CC1(C)CCC(CN2CCN(c3ccc(C(=O)NS(=O)(=O)c4cc5c(c([N+](=O)[O-])c4)N[C@H](CO)C5)c(Oc4cnc5[nH]ccc5c4)c3)CC2)=C(c2ccc(Cl)cc2)C1 [Example 1-6, (S)-2-((1H-pyrrolo[2,3-b]pyridin-5-yl)oxy)-4-(4-((4′-chloro-5,5-dimethyl-3,4,5,6-tetra-hydro-[1,1′-biphenyl]-2-yl)methyl)piperazin-1-yl)-N-((2-(hydroxymethyl)-7-nitroindolin-5-yl)sulfonyl)benzamide]  6.66
6. CC(=O)NCC[C@@H]1COc2cc(S(=O)(=O)NC(=O)c3ccc(N4CCN(CC5=C(c6ccc(Cl)cc6)CC(C)(C)CC5)CC4)cc3Oc3cnc4[nH]ccc4c3)cc([N+](=O)[O-])c2N1 [Example 2-62, (R)-2-((1H-pyrrolo[2,3-b]pyridin-5-yl)oxy)-N-((3-(2-acetamidoethyl)-5-nitro-3,4-di-hydro-2H-benzo[b][1,4]oxazin-7-yl)sulfonyl)-4-(4-((4′-chloro-5,5-dimethyl-3,4,5,6-tetra-hydro-[1,1′-biphenyl]-2-yl)methyl)piperazin-1-yl)benzamide]  6.64
7. CC1(C)CCC(CN2CCN(c3ccc(C(=O)NS(=O)(=O)c4cc5c(c([N+](=O)[O-])c4)N[C@H](CN4CCC(C)(O)CC4)C5)c(Oc4cnc5[nH]ccc5c4)c3)CC2)=C(c2ccc(Cl)cc2)C1 [Example 1-4, (S)-2-((1H-pyrrolo[2,3-b]pyridin-5-yl)oxy)-4-(4-((4′-chloro-5,5-dimethyl-3,4,5,6-tetra-hydro-[1,1′-biphenyl]-2-yl)methyl)piperazin-1-yl)-N-((2-((4-hydroxy-4-methylpiperidin-1-yl)methyl)-7-nitroindolin-5-yl)sulfonyl) benzamide]  6.51
8. CC1(C)CCC(CN2CCN(c3ccc(C(=O)NS(=O)(=O)c4cc5c(c([N+](=O)[O-])c4)N[C@H](CCNC(=O)C4CCOCC4)CO5)c(Oc4cnc5[nH]ccc5c4)c3)CC2)=C(c2ccc(Cl)cc2)C1 [Example 2-57, (R)-N-(2-(7-(N-(2-((1H-pyrrolo[2,3-b]pyridin-5-yl)oxy)-4-(4-((4′-chloro-5,5-dimethyl-3,4,5,6-tetrahydro-[1,1′-biphenyl]-2-yl)meth-yl)piperazin-1-yl)benzoyl)sulfamoyl)-5-nitro-3,4-dihydro-2H-benzo[b][1,4]oxazin-3-yl)ethyl)tetrahydro-2H-pyran-4-carboxamide]  6.41
9. C[C@H]1COCCN1C[C@H]1COc2cc(S(=O)(=O)NC(=O)c3ccc(N4CCN(CC5=C(c6ccc(Cl)cc6)CC(C)(C)CC5)CC4)cc3Oc3cnc4[nH]ccc4c3)cc([N+](=O)[O-])c2N1 [Example 2-85, 2-((1H-pyrrolo[2,3-b]pyridin-5-yl)oxy)-4-(4-((4′-chloro-5,5-dimethyl-3,4,5,6-tetra-hydro-[1,1′-biphenyl]-2-yl)methyl)piperazin-1-yl)-N-(((S)-3-(((S)-3-methylmorpholino)meth-yl)-5-nitro-3,4-dihydro-2H-benzo[b][1,4]oxazin-7-yl)sulfonyl)benzamide]  6.36
10. C[C@@H]1COCCN1C[C@H]1COc2cc(S(=O)(=O)NC(=O)c3ccc(N4CCN(CC5=C(c6ccc(Cl)cc6)CC(C)(C)CC5)CC4)cc3Oc3cnc4[nH]ccc4c3)cc([N+](=O)[O-])c2N1 [Example 2-86, 2-((1H-pyrrolo[2,3-b]pyridin-5-yl)oxy)-4-(4-((4′-chloro-5,5-dimethyl-3,4,5,6-tetra-hydro-[1,1′-biphenyl]-2-yl)methyl)piperazin-1-yl)-N-(((S)-3-(((R)-3-methylmorpholino)meth-yl)-5-nitro-3,4-dihydro-2H-benzo[b][1,4]oxazin-7-yl)sulfonyl)benzamide]  6.19
11. CC1(C)CCC(CN2CCN(c3ccc(C(=O)NS(=O)(=O)c4cc5c(c([N+](=O)[O-])c4)N[C@H](CCNC(=O)N4CCOCC4)CO5)c(Oc4cnc5[nH]ccc5c4)c3)CC2)=C(c2ccc(Cl)cc2)C1 [Example 2-59]  6.14
12. CC1(C)CCC(CN2CCN(c3ccc(C(=O)NS(=O)(=O)c4cc5c(c([N+](=O)[O-])c4)N[C@@H](CCNC(=O)N4CCOCC4)CO5)c(Oc4cnc5[nH]ccc5c4)c3)CC2)=C(c2ccc(Cl)cc2)C1 [Example 2-58, (S)-N-(2-(7-(N-(2-((1H-pyrrolo[2,3-b]pyridin-5-yl)oxy)-4-(4-((4′-chloro-5,5-dimethyl-3,4,5,6-tetrahydro-[1,1′-biphenyl]-2-yl)meth-yl)piperazin-1-yl)benzoyl)sulfamoyl)-5-nitro-3,4-dihydro-2H-benzo[b][1,4]oxazin-3-yl)ethyl)morpholine-4-carboxamide]  6.06
13. CC1(C)CCC(CN2CCN(c3ccc(C(=O)NS(=O)(=O)c4cc5c(c([N+](=O)[O-])c4)N[C@@H](CNS(=O)(=O)N4CCOCC4)CO5)c(Oc4cnc5[nH]ccc5c4)c3)CC2)=C(c2ccc(Cl)cc2)C1 [Example 2-67, (S)-2-((1H-pyrrolo[2,3-b]pyriidn-5-yl)oxy)-4-(4-((4′-chloro-5,5-dimethyl-3,4,5,6-tetra-hydro-[1,1′-biphenyl]-2-yl)methyl)piperazin-1-yl)-N-((3-((morpholine-4-sulfonamido)methyl)-5-nitro-3,4-dihydro-2H-benzo[b] [1,4]oxazin-7-yl)sulfonyl)benzamide]  5.88
